# pIC50: −log10 of the molar value.
# Test system: NCI-H1876 complex spheroid growth, % test/control
# Assay: Anticancer human tumor NCI-H1876 cell line growth inhibition [Asc];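 further: compound exposure lasted 7 days starting three days after seeding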;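 on viability, T/C: 100% = DMSO vehicle control wells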
# Settings: for pIC50: curve of first compound; for viability, T/C: stronger effect = lower value
# How it was run: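 Tumor cells were grown as complex spheroids with human endothelial cells (HUVEC) and human mesenchymal stem cells as stroma. Agents were tested alone and in combination, in half-log steps down from the clinical Cmax, or from 10 microM where Cmax was unknown.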
# [1] = second compound 0.0316 µM, first compound 0.0316 µM
# [2] = second compound 0.0316 µM, first compound 0.1 µM
# [3] = second compound 0.0316 µM, first compound 0.316 µM
# [4] = second compound 0.0316 µM, first compound 1 µM
# [5] = second compound 0.1 µM, first compound 0.0316 µM
# [6] = second compound 0.1 µM, first compound 0.1 µM
# [7] = second compound 0.1 µM, first compound 0.316 µM
# [8] = second compound 0.1 µM, first compound 1 µM
# [9] = second compound 0.316 µM, first compound 0.0316 µM
# [10] = second compound 0.316 µM, first compound 0.1 µM
# [11] = second compound 0.316 µM, first compound 0.316 µM
# [12] = second compound 0.316 µM, first compound 1 µM
# [13] = second compound 1 µM, first compound 0.0316 µM
# [14] = second compound 1 µM, first compound 0.1 µM
# [15] = second compound 1 µM, first compound 0.316 µM
# [16] = second compound 1 µM, first compound 1 µM
# [17] = second compound 3.16 µM, first compound 0.0316 µM
# [18] = second compound 3.16 µM, first compound 0.1 µM
# [19] = second compound 3.16 µM, first compound 0.316 µM
# [20] = second compound 3.16 µM, first compound 1 µM
# [21] = second compound 10 µM, first compound 0.0316 µM
# [22] = second compound 10 µM, first compound 0.1 µM
# [23] = second compound 10 µM, first compound 0.316 µM
# [24] = second compound 10 µM, first compound 1 µM
structure (smiles),measurement,setting,value
C#Cc1c(F)ccc2cc(O)cc(-c3ncc4c(N5CC6CCC(C5)N6)nc(OCC56CCCN5CC(F)C6)nc4c3F)c12 (stereo unspecified) + Cc1c(S(C)(=O)=O)c(-c2cc(F)cc(N3CCN(c4ccc(NS(=O)(=O)c5ccc(NC(CCN6CCC(C(=O)OCCCP(=O)(O)O)CC6)CSc6ccccc6)c(S(=O)(=O)C(F)(F)F)c5)cc4)CC3)c2)c(-c2ccc(Cl)cc2)n1C(C)C,pIC50,second compound 0.0316 µM,< 5.00
same,pIC50,second compound 0.1 µM,< 5.00
same,pIC50,second compound 0.316 µM,< 5.00
same,pIC50,second compound 1 µM,< 5.00
same,pIC50,second compound 3.16 µM,< 5.00
same,pIC50,second compound 10 µM,< 5.00
same,"viability, T/C",[1],98.7%
same,"viability, T/C",[2],84.9%
same,"viability, T/C",[3],108%
same,"viability, T/C",[4],91.2%
same,"viability, T/C","second compound 0.0316 µM, first compound 3.16 µM",96.8%
same,"viability, T/C","second compound 0.0316 µM, first compound 10 µM",92.9%
same,"viability, T/C",[5],92.2%
same,"viability, T/C",[6],101%
same,"viability, T/C",[7],99.3%
same,"viability, T/C",[8],83.1%
same,"viability, T/C","second compound 0.1 µM, first compound 3.16 µM",90.6%
same,"viability, T/C","second compound 0.1 µM, first compound 10 µM",88%
same,"viability, T/C",[9],106%
same,"viability, T/C",[10],90.5%
same,"viability, T/C",[11],85.5%
same,"viability, T/C",[12],90.7%
same,"viability, T/C","second compound 0.316 µM, first compound 3.16 µM",86.5%
same,"viability, T/C","second compound 0.316 µM, first compound 10 µM",86.7%
same,"viability, T/C",[13],90%
same,"viability, T/C",[14],97.8%
same,"viability, T/C",[15],102%
same,"viability, T/C",[16],92%
same,"viability, T/C","second compound 1 µM, first compound 3.16 µM",88.2%
same,"viability, T/C","second compound 1 µM, first compound 10 µM",73.5%
same,"viability, T/C",[17],101%
same,"viability, T/C",[18],108%
same,"viability, T/C",[19],89.5%
same,"viability, T/C",[20],87.4%
same,"viability, T/C","second compound 3.16 µM, first compound 3.16 µM",87.3%
same,"viability, T/C","second compound 3.16 µM, first compound 10 µM",74.7%
same,"viability, T/C",[21],93.2%
same,"viability, T/C",[22],99.4%
same,"viability, T/C",[23],109%
same,"viability, T/C",[24],93.6%
same,"viability, T/C","second compound 10 µM, first compound 3.16 µM",95.8%
same,"viability, T/C","second compound 10 µM, first compound 10 µM",77%
CNC(C)C(=O)NC1CN(S(=O)(=O)c2cccc(S(=O)(=O)N3CCC4CCC(C(=O)NC(c5ccccc5)c5ccccc5)N4C(=O)C(NC(=O)C(C)NC)C3)c2)CCC2CCC(C(=O)NC(c3ccccc3)c3ccccc3)N2C1=O (stereo unspecified) + Cc1c(S(C)(=O)=O)c(-c2cc(F)cc(N3CCN(c4ccc(NS(=O)(=O)c5ccc(NC(CCN6CCC(C(=O)OCCCP(=O)(O)O)CC6)CSc6ccccc6)c(S(=O)(=O)C(F)(F)F)c5)cc4)CC3)c2)c(-c2ccc(Cl)cc2)n1C(C)C,pIC50,second compound 0.0316 µM,< 6.00
same,pIC50,second compound 0.1 µM,< 6.00
same,pIC50,second compound 0.316 µM,< 6.00
same,pIC50,second compound 1 µM,< 6.00
same,pIC50,second compound 3.16 µM,< 6.00
same,pIC50,second compound 10 µM,< 6.00
same,"viability, T/C","second compound 0.0316 µM, first compound 0.00316 µM",95.1%
same,"viability, T/C","second compound 0.0316 µM, first compound 0.01 µM",96.4%
same,"viability, T/C",[1],98%
same,"viability, T/C",[2],97.8%
same,"viability, T/C",[3],103%
same,"viability, T/C",[4],103%
same,"viability, T/C","second compound 0.1 µM, first compound 0.00316 µM",91.3%
same,"viability, T/C","second compound 0.1 µM, first compound 0.01 µM",96.2%
same,"viability, T/C",[5],95%
same,"viability, T/C",[6],98.8%
same,"viability, T/C",[7],105%
same,"viability, T/C",[8],98.7%
same,"viability, T/C","second compound 0.316 µM, first compound 0.00316 µM",101%
same,"viability, T/C","second compound 0.316 µM, first compound 0.01 µM",102%
same,"viability, T/C",[9],97.2%
same,"viability, T/C",[10],97.3%
same,"viability, T/C",[11],103%
same,"viability, T/C",[12],104%
same,"viability, T/C","second compound 1 µM, first compound 0.00316 µM",94%
same,"viability, T/C","second compound 1 µM, first compound 0.01 µM",91.6%
same,"viability, T/C",[13],91.6%
same,"viability, T/C",[14],100%
same,"viability, T/C",[15],112%
same,"viability, T/C",[16],92.7%
same,"viability, T/C","second compound 3.16 µM, first compound 0.00316 µM",99.9%
same,"viability, T/C","second compound 3.16 µM, first compound 0.01 µM",87.2%
same,"viability, T/C",[17],96.1%
same,"viability, T/C",[18],88.1%
same,"viability, T/C",[19],101%
same,"viability, T/C",[20],91.8%
same,"viability, T/C","second compound 10 µM, first compound 0.00316 µM",97.4%
same,"viability, T/C","second compound 10 µM, first compound 0.01 µM",97.4%
same,"viability, T/C",[21],88.3%
same,"viability, T/C",[22],110%
same,"viability, T/C",[23],102%
same,"viability, T/C",[24],101%
Cc1nc(N2CCC3(CC2)COC(C)C3N)c(CO)nc1Sc1ccnc(N)c1Cl (stereo unspecified) + Cc1c(S(C)(=O)=O)c(-c2cc(F)cc(N3CCN(c4ccc(NS(=O)(=O)c5ccc(NC(CCN6CCC(C(=O)OCCCP(=O)(O)O)CC6)CSc6ccccc6)c(S(=O)(=O)C(F)(F)F)c5)cc4)CC3)c2)c(-c2ccc(Cl)cc2)n1C(C)C,pIC50,second compound 0.0316 µM,< 5.52
same,pIC50,second compound 0.1 µM,< 5.52
same,pIC50,second compound 0.316 µM,< 5.52
same,pIC50,second compound 1 µM,< 5.52
same,pIC50,second compound 3.16 µM,< 5.52
same,pIC50,second compound 10 µM,< 5.52
same,"viability, T/C","second compound 0.0316 µM, first compound 0.00949 µM",106%
same,"viability, T/C","second compound 0.0316 µM, first compound 0.03 µM",86.8%
same,"viability, T/C","second compound 0.0316 µM, first compound 0.0949 µM",90.2%
same,"viability, T/C","second compound 0.0316 µM, first compound 0.3 µM",78.7%
same,"viability, T/C","second compound 0.0316 µM, first compound 0.949 µM",83.2%
same,"viability, T/C","second compound 0.0316 µM, first compound 3 µM",79.4%
same,"viability, T/C","second compound 0.1 µM, first compound 0.00949 µM",95.7%
same,"viability, T/C","second compound 0.1 µM, first compound 0.03 µM",101%
same,"viability, T/C","second compound 0.1 µM, first compound 0.0949 µM",93.7%
same,"viability, T/C","second compound 0.1 µM, first compound 0.3 µM",88%
same,"viability, T/C","second compound 0.1 µM, first compound 0.949 µM",84.2%
same,"viability, T/C","second compound 0.1 µM, first compound 3 µM",82.6%
same,"viability, T/C","second compound 0.316 µM, first compound 0.00949 µM",81.8%
same,"viability, T/C","second compound 0.316 µM, first compound 0.03 µM",89.7%
same,"viability, T/C","second compound 0.316 µM, first compound 0.0949 µM",92.2%
same,"viability, T/C","second compound 0.316 µM, first compound 0.3 µM",75.7%
same,"viability, T/C","second compound 0.316 µM, first compound 0.949 µM",88.4%
same,"viability, T/C","second compound 0.316 µM, first compound 3 µM",81.6%
same,"viability, T/C","second compound 1 µM, first compound 0.00949 µM",94.2%
same,"viability, T/C","second compound 1 µM, first compound 0.03 µM",92%
same,"viability, T/C","second compound 1 µM, first compound 0.0949 µM",81.5%
same,"viability, T/C","second compound 1 µM, first compound 0.3 µM",83.8%
same,"viability, T/C","second compound 1 µM, first compound 0.949 µM",93.7%
same,"viability, T/C","second compound 1 µM, first compound 3 µM",74.2%
same,"viability, T/C","second compound 3.16 µM, first compound 0.00949 µM",90.1%
same,"viability, T/C","second compound 3.16 µM, first compound 0.03 µM",88.7%
same,"viability, T/C","second compound 3.16 µM, first compound 0.0949 µM",83.7%
same,"viability, T/C","second compound 3.16 µM, first compound 0.3 µM",84.9%
same,"viability, T/C","second compound 3.16 µM, first compound 0.949 µM",83.3%
same,"viability, T/C","second compound 3.16 µM, first compound 3 µM",80.7%
same,"viability, T/C","second compound 10 µM, first compound 0.00949 µM",103%
same,"viability, T/C","second compound 10 µM, first compound 0.03 µM",88.8%
same,"viability, T/C","second compound 10 µM, first compound 0.0949 µM",85.3%
same,"viability, T/C","second compound 10 µM, first compound 0.3 µM",92.4%
same,"viability, T/C","second compound 10 µM, first compound 0.949 µM",96.7%
same,"viability, T/C","second compound 10 µM, first compound 3 µM",70.3%

# Reference: PubChem BioAssay AID1963441 (Molecular Pharmacology Branch, DTP, NCI, 2024)
